# Laboratory results as given in PMC5717258, “Bioaccumulation of pharmaceuticals and personal care product chemicals in fish exposed to wastewater effluent in an urban wetland” (Scientific Reports, 2017).
# Like-named read-outs stand apart in the source and are kept apart here.
# Experiments:
# [1] = Method: Plasma from 9 individual male fish (500 µL/individual) was pooled to yield 3 samples for PPCP analysis. […] Plasma from 6 individual carp (2.3–3.5 g) from each location was selected for PPCP analysis. […] Plasma samples were frozen (−80 °C) until analysis.
# (§1) A total of 20 fish plasma samples from the pooled caged fish (7) and the wild fish (13) along with 12 water samples were selected for analysis. […] A full list of analytes is provided in Supplementary Information. Mass labelled^13C-, or deuterated surrogate internal standards were used for quantification of all analytes via the isotope dilution/surrogate standard quantitation method. Prior to extraction and/or clean-up procedures, aqueous samples were adjusted to pH 2.0, spiked with extraction surrogate standards, then adjusted to pH 4 using tetrasodium ethylenediamine-tetraacetate dihydrate. Plasma samples (2.3–2.5 g) were spiked with extraction surrogate standards, sonicated with 20 mL acetonitrile, then diluted with ultra-pure water to 200 mL. The extracts were cleaned up by solid phase extraction using Oasis HLB cartridges (Waters Ltd. Mississauga ON), filtered, and analyzed by liquid chromatography-electrospray ionization-tandem mass spectrometry (LC/ESI-MS/MS) in positive or negative ionization mode. The analysis of the complete list of analytes (SI Table S1) required a total of five instrumental runs.
# (§2) Quality assurance steps included analysis of lab blanks for water and plasma along with matrix recovery spikes. […] Detection limits (DLs) were defined as lowest calibration level adjusted to the maximal sample size or 3 times the signal of the noise in the target channel converted to an equivalent sample, whichever was greater. […] Where analytes were detected in two or more samples of the same species or series of water samples, non-detect values were converted to ½ the DL value for reporting purposes.
# [2] = cited from earlier work
# in vivo = settings: for concentration at 21 days: goldfish (Carassius auratus)
# Source text: Cages were visited weekly, and fish (13/cage) were fed during the visits (20 g/cage). All animal experiments were in accordance with CCAC guidance and approved by the GLLFAS-WSTD Animal Care Committee (Government of Canada). Further details on the caging and preparation of the fish and animal care protocols are provided in Simmons et al.[32]. […] A fourth site, Jordan Harbour (JH), a widening of 20 Mile Creek adjacent to Lake Ontario near Jordan ON, served as a reference site. Mass and fork length were measured and recorded. Plasma collection and storage is described in the SI. Plasma of caged goldfish was divided for proteome, metabolome and PPCP analysis. Due to limited volumes, pooled samples of plasma from 25 individual fish (50 µL/individual) was pooled to yield one sample from at each location for PPCP analysis.
# as §1, §2
# [3] = cited from earlier work; remark: listed apart in the source
# [4] = set-up: method as in US EPA Chemistry Dashboard; settings: ref US EPA Chemistry Dashboard; cited from earlier work
# [5] = human, ref Schulz et al.[56], cited from earlier work; for Therapeutic "normal" blood-plasma/serum concentration: converted from µg/mL
# [6] = Plasma bioaccumulation factor (BAFP), goldfish; assay type: in vivo, goldfish (Carassius auratus); settings: for BAFP, CPM2 goldfish caged: water sample of August 2012; for BAFP at CPM3, wild goldfish, average: conc in fish plasma/conc in water; for BAFP at CPM3, wild goldfish, range: range based on range of plasma concentrations
# Method: Bioaccumulation factor (BAFP) was calculated as concentration in fish plasma (ng/g × 1000) divided by concentration in water (ng/L). Two widely used modeling approaches for predicting organic contaminant bioaccumulation were assessed: the BCF-BAF model for whole body BAFs[53] and the fish-plasma concentration calculation of Huggett et al.[35] modified by Berninger et al.[54]. The latter involves estimating an octanol-water partition coefficient (Kow) adjusted for fraction ionized (log D), using the pKa value to adjust log Kow[54] taking into account the pH of CPM waters. Further information on the calculation of log D, blood-water partitioning (PBW), and plasma concentrations (FPC) is given in the SI.
# [7] = wild goldfish sample 01, 2012, wet weight
# [8] = wild goldfish sample 02, 2012, wet weight
# [9] = wild goldfish sample 03, 2012, wet weight
# [10] = CPM1, 07-2014, pooled plasma, wet weight
# [11] = CPM2, 07-2014, pooled plasma, wet weight
# [12] = CPM3, 07-2014, pooled plasma, wet weight
# [13] = Jordan Harbour reference site, 07-2014, pooled plasma, wet weight
# [14] = Table S7, ref Meador et al. (2016)
# [15] = male, goldfish (Carassius auratus), in vivo
# [16] = in vivo, caged goldfish plasma, range of concentrations
# [17] = in vivo, plasma concentration, CPM1 caged
# [18] = in vivo, plasma concentration, CPM2 caged
# [19] = in vivo, plasma concentration, CPM3 caged
# [20] = in vivo, plasma concentration, JH caged
compound,measurement,setting,value
CN(C)CCC=C1c2ccccc2CC(O)c2ccccc21 (stereo not shown) [10-hydroxy-amitriptyline],"plasma concentration, CPM-C 01","[1]; Cootes carp 01, 2011, male, wet weight",0.032 ng/g
same,"plasma concentration, CPM-C 2","[1]; Cootes carp 2, Sep 27, 2011, male, wet weight",0.053 ng/g
same,"plasma concentration, CPM-C 10","[1]; Cootes carp 10, Sep 28, 2011, female, wet weight",0.024 ng/g
same,"plasma concentration, CPM-C 13","[1]; Cootes carp 13, Sep 28, 2011, female, wet weight",0.047 ng/g
same,"plasma concentration, CPM-C 20","[1]; Cootes carp 20, 2011, male, wet weight",0.016 ng/g
same,"plasma concentration, CPM-C 36","[1]; Cootes carp 36, Oct 3, 2011, female, wet weight",0.025 ng/g
same,"Carp plasma concentration, this study (range)",[1]; Table S7,0.02 to 0.05 ng/g
same,"Goldfish plasma concentration, this study (range)",[1]; Table S7,0.01 to 0.06 ng/g
same,"plasma concentration, CPM wild-01",[1]; [7],0.015 ng/g
same,"plasma concentration, CPM wild-02",[1]; [8],0.036 ng/g
same,"plasma concentration, CPM wild-03",[1]; [9],0.058 ng/g
same,Salmon (whole body) concentration,[2]; in vivo,0.09 ng/g
same,"plasma concentration, CPM1 caged",in vivo; [10],0.033 ng/g
same,"plasma concentration, CPM2 caged",in vivo; [11],0.039 ng/g
same,"plasma concentration, CPM3 caged",in vivo; [12],0.015 ng/g
same,"plasma concentration, JH caged",in vivo; [13],< 0.03 ng/g
same,Sculpin (whole body) concentration,[3]; in vivo,0.13 ng/g
"Cc1nnc2n1-c1ccc(Cl)cc1C(c1ccccc1)=NC2 [Alpr azolam, Alprazolam]",Sculpin (whole body) concentration,[3]; [14],0.38 ng/g
CN(C)CCC=C1c2ccccc2CCc2ccccc21 [Amitriptyline],"Goldfish plasma concentration, this study (range)",[1]; Table S7,0.03 to 0.09 ng/g
same,"plasma concentration, CPM wild-01",[1]; [7],0.029 ng/g
same,"plasma concentration, CPM wild-02",[1]; [8],0.082 ng/g
same,"plasma concentration, CPM wild-03",[1]; [9],0.091 ng/g
same,Salmon (whole body) concentration,[2]; [14],0.58 to 0.68 ng/g
same,concentration at 21 days,"in vivo; in vivo, plasma concentration, CPM1 caged, CPM1, 07-2014, pooled plasma, wet weight",0.029 ng/g
same,concentration at 21 days,"in vivo; in vivo, plasma concentration, CPM2 caged, CPM2, 07-2014, pooled plasma, wet weight",0.029 ng/g
same,concentration at 21 days,"in vivo; in vivo, plasma concentration, CPM3 caged, CPM3, 07-2014, pooled plasma, wet weight",0.031 ng/g
same,concentration at 21 days,"in vivo; in vivo, plasma concentration, JH caged, Jordan Harbour reference site, 07-2014, pooled plasma, wet weight",< 0.06 ng/g
"CC[C@H]1OC(=O)[C@H](C)[C@@H](O[C@H]2C[C@@](C)(OC)[C@@H](O)[C@H](C)O2)[C@H](C)[C@@H](O[C@@H]2O[C@H](C)C[C@H](N(C)C)[C@H]2O)[C@](C)(O)C[C@@H](C)CN(C)[C@H](C)[C@@H](O)[C@]1(C)O [Azithrom yc in, Azithromycin]",Salmon (whole body) concentration,[2]; [14],1.7 ng/g
CN1[C@@H]2CC[C@H]1C[C@@H](OC(c1ccccc1)c1ccccc1)C2 [Benztropine],log Kow,[4],3.85
same,Salmon (whole body) concentration,[2]; [14],0.2 ng/g
same,"whole fish concentration, salmon",[2]; ref Meador et al. 18,0.2 ng/g wet weight or ng/mL for plasma
same,"Therapeutic ""normal"" blood-plasma/serum concentration",[5],10 to 180 ng/mL
same,toxic dose (toxic blood-plasma/serum concentration),[5],50 ng/mL
same,"whole fish concentration, sculpin",[3]; ref Meador et al. 18,< mdl
CC(C)(c1ccc(O)cc1)c1ccc(O)cc1 [Bisphenol A],Salmon (whole body) concentration,[2]; [14],3.3 to 41 ng/g
same,Sculpin (whole body) concentration,[3]; [14],3.6 to 4.5 ng/g
"O=C(O)c1cn(C2CC2)c2cc(N3CCNCC3)c(F)cc2c1=O [Ciproﬂoxacin, Ciprofloxacin]",Sculpin (whole body) concentration,[3]; [14],17 ng/g
CN(C)CCCC1(c2ccc(F)cc2)OCc2cc(C#N)ccc21 (stereo not shown) [Citalopram],"plasma concentration, carp, this study (mean)",[1]; in vivo,< mdl
same,"plasma concentration, CPM wild-01",[1]; [15],0.0392 ng/g
same,"plasma concentration, CPM wild-02",[1]; [15],0.127 ng/g
same,"plasma concentration, CPM wild-03",[1]; [15],0.13 ng/g
same,"plasma concentration, goldfish, this study (mean)",[1]; [15],0.10 ng/g wet weight or ng/mL for plasma
same,"wild goldfish plasma, range of concentrations",[1]; [15],0.04 to 0.16 ng/g
same,log Kow,[4],3.74
same,"BAFP, CPM1 goldfish caged",[6],4 L/kg
same,"BAFP, CPM2 goldfish caged",[6],6 L/kg
same,"BAFP, CPM3 goldfish caged",[6],52 L/kg
same,"BAFP at CPM3, wild goldfish, average",[6],44 L/kg
same,"BAFP at CPM3, wild goldfish, range",[6],18 to 58 L/kg
same,"Therapeutic ""normal"" blood-plasma/serum concentration",[5],50 to 110 ng/mL
same,concentration at 21 days,in vivo; [16],0.04 to 0.13 ng/g
same,concentration at 21 days,in vivo; [17],0.145 ng/g
same,concentration at 21 days,in vivo; [18],0.163 ng/g
same,concentration at 21 days,in vivo; [19],0.041 ng/g
same,concentration at 21 days,in vivo; [20],< 0.08 ng/g
"CNCCN1C(=O)[C@H](OC(C)=O)[C@H](c2ccc(OC)cc2)Sc2ccccc21 [Desm eth yld ilt ia zem, Desmethyldiltiazem]",Salmon (whole body) concentration,[2]; [14],0.06 to 1.5 ng/g
same,Sculpin (whole body) concentration,[3]; [14],0.07 to 0.08 ng/g
CN1C(=O)CN=C(c2ccccc2)c2cc(Cl)ccc21 [Diazepam],Salmon (whole body) concentration,[2]; [14],0.39 ng/g
same,Sculpin (whole body) concentration,[3]; [14],0.25 ng/g
CN(C)CCOC(c1ccccc1)c1ccccc1 [Diphenhydramine],"BAFP, CPM1 goldfish caged",[6],7 L/kg
same,"BAFP, CPM2 goldfish caged",[6],5 L/kg
CNCCC(Oc1ccc(C(F)(F)F)cc1)c1ccccc1 (stereo not shown) [Fluoxetine],Salmon (whole body) concentration,[2]; [14],4.9 ng/g
C[C@H](O)C(=O)Nc1c(I)c(C(=O)NC(CO)CO)c(I)c(C(=O)NC(CO)CO)c1I [Iopamidol],"plasma concentration, carp, this study (mean)",[1]; in vivo,< mdl
same,"plasma concentration, CPM wild-01",[1]; [15],7.85 ng/g
same,"plasma concentration, CPM wild-02",[1]; [15],8.15 ng/g
same,"plasma concentration, CPM wild-03",[1]; [15],8.35 ng/g
same,"plasma concentration, goldfish, this study (mean)",[1]; [15],8.12 ng/g wet weight or ng/mL for plasma
same,"wild goldfish plasma, range of concentrations",[1]; [15],8.2 to 20.9 ng/g
same,log Kow,[4],-2.21
same,"BAFP, CPM1 goldfish caged",[6],75 L/kg
same,"BAFP, CPM2 goldfish caged",[6],50 L/kg
same,"BAFP, CPM3 goldfish caged",[6],13 L/kg
same,"BAFP at CPM3, wild goldfish, average",[6],38 L/kg
same,"BAFP at CPM3, wild goldfish, range",[6],37 to 40 L/kg
same,concentration at 21 days,in vivo; [16],7.85 to 8.35 ng/g
same,concentration at 21 days,in vivo; [17],20.9 ng/g
same,concentration at 21 days,in vivo; [18],17.6 ng/g
same,concentration at 21 days,in vivo; [19],8.2 ng/g
same,concentration at 21 days,in vivo; [20],< 16 ng/g
Clc1ccc(COC(Cn2ccnc2)c2ccc(Cl)cc2Cl)c(Cl)c1 (stereo not shown) [Miconazole],Salmon (whole body) concentration,[2]; [14],1.8 ng/g
"COc1ccc(CCNCCCC(C#N)(c2ccc(OC)c(OC)c2)C(C)C)cc1OC (stereo not shown) [Norverapam il, Norverapamil]",Salmon (whole body) concentration,[2]; [14],0.12 to 0.47 ng/g
same,Sculpin (whole body) concentration,[3]; [14],0.20 to 0.30 ng/g
"COc1cc(C)c(Cc2cnc(N)nc2N)cc1OC [Orm etoprim, Ormetoprim]",Salmon (whole body) concentration,[2]; [14],44 to 1600 ng/g
Nc1ccc(S(=O)(=O)Nc2ncccn2)cc1 [Sulfadiazine],Salmon (whole body) concentration,[2]; [14],0.88 ng/g
"COc1cc(NS(=O)(=O)c2ccc(N)cc2)nc(OC)n1 [Sulfadim ethoxine, Sulfadimethoxine]",Salmon (whole body) concentration,[2]; [14],0.34 to 17 ng/g
"Cc1ccnc(NS(=O)(=O)c2ccc(N)cc2)n1 [Sulfam erazine, Sulfamerazine]",Salmon (whole body) concentration,[2]; [14],0.51 ng/g
"Oc1cc(Cl)ccc1Oc1ccc(Cl)cc1Cl [T riclosan, Triclosan]",Salmon (whole body) concentration,[2]; [14],26 ng/g
"CC1=C\[C@@H](O)CC(=O)Cc2nc(co2)C(=O)N2CCC=C2C(=O)O[C@H](C(C)C)[C@H](C)/C=C/C(=O)NC\C=C\1 [Virg in iam ycin M1, Virginiamycin M1]",Salmon (whole body) concentration,[2]; [14],10 ng/g
same,Sculpin (whole body) concentration,[3]; [14],8 to 34 ng/g
NC(=O)N1c2ccccc2C=Cc2ccccc21 [carbamazepine],detection in fish plasma,in vivo; in vivo,not detected
Anhydrochlortetracycline,"plasma concentration, CPM wild-01",[1]; [7],< 2.94 ng/g
same,"plasma concentration, CPM wild-02",[1]; [8],< 3.18 ng/g
same,"plasma concentration, CPM wild-03",[1]; [9],< 3.13 ng/g
same,"plasma concentration, CPM1 caged",in vivo; [10],2.97 ng/g
same,"plasma concentration, CPM2 caged",in vivo; [11],< 2.92 ng/g
same,"plasma concentration, CPM3 caged",in vivo; [12],< 3.07 ng/g
same,"plasma concentration, JH caged",in vivo; [13],< 3.0 ng/g
